Legend:
[1] = TGA volatility at 40 degrees Celsius (Example 3); assay type: physicochemical; details: isothermal at 40° C. for 900 minutes, slope from 800-900 minutes
Method: Volatility may be measured by Thermogravimetric Analysis (TGA) method. Volatility of bee repellent compounds is measured by TGA at 40° C. (i.e., as bee repellent wt % loss per min at 40° C.). In some variations, a “high volatility” bee repellent compound has a volatility greater than 1E-04 (wt % loss/min at 40° C.). In some variations, a “low volatility” bee repellent compound has a bee repellent volatility less than 1E-04 (wt % loss/min at 40° C.).
A TA Instruments TGA5500 was used to determine the volatility of bee repellent chemicals at 40 degrees Celsius. The sample purge was set for 25 mL/min and the balance purge is set for 10 mL/min. A 30 mg sample of the chemical was placed in the sample pan, the temperature was ramped up to 40° C. at a rate of 10° C./min and was held isothermal at 40° C. for 900 minutes. The slope was then determined from 800-900 minutes to determine its volatility. The volatility of bee repellent compounds were determined according to Table 6 below.

[2] = system: honey bee workers (Apis mellifera); assay: 2-choice plate (petri-dish arena) assay, honey vs honey plus repellent candidate; assay type: in vivo; details: 2-choice plate assay; for First choice Preference Index (repellent side): first visit and drink (repellent - solvent)/(repellent + solvent); for Honey consumption Preference Index (repellent side): plates where honeybees drank more honey from (repellent - solvent)/(repellent + solvent)
Method: To date, we used capped brood frames from 10 colonies kept in three apiaries on campus at UC Riverside. After moving the brood (pupated honey bee larvae) into an observation frame inside an incubator overnight, we collected freshly emerged honey bee workers into groups of 80 per cage, providing them with a small piece of wax foundation, 50% sugar water and tap water ad libitum. Between day 3 and day 10 post emergence, we provided them with a protein dough. We removed dead workers and exchanged food every second day. After the bees reached foraging age (13-19 days post emergence), we grouped them into cages of 40 workers, each. To ensure that they were hungry enough to participate in our trials, we starved the workers before each experiment, depending on their age. Between 13 and 16 days of age, we wet-starved them for 17 hours by removing the sugar water tube from their cage, replacing it with an empty vial. Bees aged between 17 and 19 days were starved for six hours, only, to ensure their survival. On the day of the experiment, we removed dead bees and food vials from each cage, and placed the cage into a refrigerator, until the trial arena was ready, and the bees were cool enough to not move anymore.
To turn a 15 cm petri-dish into a 2-choice test arena, we taped a paper-grid on the outside of its bottom, establishing one side as honey (H) and the other as honey plus repellent candidate (HR, FIG. 3). Next, we pipetted 20 ul of pure acetone onto a 6 mm punch-out of filter paper, then let it evaporate in the fume hood for at least 30 min. We then taped the punch-out to the H-spot on the petri-dish. Repeating the process with 20 ul of the repellent candidate (5% in acetone), again letting the acetone evaporate for at least 30 Min, we stuck the now solely repellent-candidate-soaked punch-out onto the HR spot of the arena. To entice the bees to participate in our trial, we used a pipette and filled two 70 ul lids of PCR tubes full of pure, slightly warmed honey, until we observed a meniscus. We then taped one honey-filled lid onto the H, the other onto the HR filter paper, being careful not to disturb the meniscus.
We placed six prepared arenas onto a heating pillow turned onto level 1 (FIG. 2B), removed the cooled honey bee workers from the fridge and grouped between four and five bees into each plate, using insect tweezers. We filmed the bees for 60 Minutes, using an ipad (video at wide-angle, 0.5). To avoid glare, we staged the ipad on top of a plexi glass pane held by a cage constructed from pvc tubes, and covered with a double cotton sheet.
After each trial, we counted those plates, in which the honey wells had been touched as participating plates. We repeated the trials often enough to ensure participation in a minimum of five plates per repellent candidate. For each of the participating plates, we then screened each video to find the first bee that chose a honey well to drink from. The choice was recorded as either Honey (H) or Honey and repellent candidate (HR). We then calculated a Preference Index for each repellent candidate as follows: Number of repellent candidate choices minus number of honey choices) divided by sum of all choices).
The negative indexes indicate, that the honey bee workers did avoid the repellent candidates, but to varying degrees. The preference indexes show the first choices of honey bee workers (Apis mellifera) offered honey on filter paper with repellent-candidates versus honey only. Groups of 4-5 honeybee workers were placed in each 2-choice arena. Indexes are calculated per repellent candidate as (total number of repellent choices minus total number of solvent choices) divided by sum of all choices).
Preference Indexes for repellent candidates were determined in a manner similar to that described in Example 1. […]

[3] = TGA volatility method of Example 4; assay type: physicochemical; details: 40° C. isothermal for 15 hours, slope between 800-900 minutes
Method: Two BR3.3A (liquid) and BR 4.5 (solid) bee repellents were used in this example for comparison. BR 3.3A has a relatively higher volatility compared to BR 4.5. A TGA method was developed to characterize volatility of bee repellents. The volatility was measured by setting up a TGA method. In the TGA pan, 0.30 mg+0.02 mg of the bee repellent of interest is applied in an even layer on the bottom of the TGA pan immediately before starting the measurement. The TGA is programmed to have a balance purge flow of 40 mL/min and a sample purge flow of 60 mL/min. The TGA ramps from 25° C. to 40° C. at a rate of 5° C. per minute. Then the temperature is held isothermally at 40° C. for 15 hours. After the test has been completed, the slope is calculated for the % loss per minute between 800-900 minutes and the results are reported. The smaller the slope, the less the volatility. The volatility of BR3.3A measured by the above method has a slope of −4.61E-03%/min, and the slope for BR4.5 is −1.81E-04%/min.

[4] = system: honey bees; assay: Field study on flowering buckwheat patches, honey bee counts; assay type: in vivo; details: emulsifiable concentrate sprayed at 4 kg/hectare; counts at 15 min, 30 min, 1 hour, 24 hours
Method: In this field study, 12 patches of buckwheat were planted, each measuring approximately 2 m×2 m in size in the agricultural operations field. When the flowering was estimated to be >50%, the experiments were performed. Each patch was divided into 2 approximately equal parts based on flowers by observation, one side for treatment spray and the other as control solvent (water) spray (FIG. 9A). The patches for different treatments were in a block design and the treatment side in a patch was randomly assigned as water or treatment (FIG. 9B). The test chemicals in emulsifiable concentrate form were dissolved in water in a tank to spray at the rate equivalent to 4 kg/hectare. After the spraying the numbers of honey bees present on each side of each patch was counted by 3 human observers at the following time points: 15 min, 30 min, 1 hour, 24 hours. The average number of bees at each time point were used to calculate the percentage decrease in numbers of bees on the treatment side relative to the water side and plotted (FIG. 9C).

Compound: CCNC(=O)c1cccc(Br)c1 [3-bromo-N-ethylbenzamide]
- TGA volatility @ 40° C. (weight loss %/min) [1]: 1.40E−04 weight loss %/min

Compound: COCCC(=O)Oc1ccccc1 [Phenyl 3-methoxypropanoate]
- TGA volatility @ 40° C. (weight loss %/min) [1]: 1.66E−02 weight loss %/min

Compound: CCCCCC(=O)c1ccccc1 [BR 3.5, Hexanophenone]
- % honey left on repellent side [2]: 100%
- First choice Preference Index (repellent side) [2]: −1
- Honey consumption Preference Index (repellent side) [2]: −1

Compound: CCCC(=O)CCc1ccccc1 [1-phenyl-3-hexanone]
- TGA volatility @ 40° C. (weight loss %/min) [1]: 1.37E−02 weight loss %/min

Compound: CCOC(=O)CNc1ccccc1C#N [Ethyl 2-(2-Cyanoanilino) acetate]
- TGA volatility @ 40° C. (weight loss %/min) [1]: 4.04E−05 weight loss %/min

Compound: CCCC(=O)CCc1ccccc1 [BR 3.4, 1-Phenyl-3-hexanone]
- % honey left on repellent side [2]: 99.72%
- First choice Preference Index (repellent side) [2]: −1
- Honey consumption Preference Index (repellent side) [2]: −1

Compound: CCOC(=O)CC1CCc2ccccc21 (stereo not shown) [BR 3.3A, ethyl 2-(2,3-dihydro-1H-inden-1-yl)acetate]
- % honey left on repellent side [2]: 95.83%
- First choice Preference Index (repellent side) [2]: −1
- Honey consumption Preference Index (repellent side) [2]: −1
- slope, % loss per minute (TGA volatility) [3]: −4.61E-03 %/min

Compound: CCNC(=O)c1cccc(Br)c1 [BR 3.47, 3-bromo-N-ethylbenzamide]
- % honey left on repellent side [2]: 95.42%
- First choice Preference Index (repellent side) [2]: −1
- Honey consumption Preference Index (repellent side) [2]: −0.6666

Compound: CCOCCCNC(=O)c1ccccc1I [N-(3-ethoxypropyl)-2-iodobenzamide]
- TGA volatility @ 40° C. (weight loss %/min) [1]: 2.16E−05 weight loss %/min

Compound: C/C(=C\C(=O)c1ccccc1)c1ccccc1 [BR 3.42, (2E)-1,3-Diphenyl-2-buten-1-on]
- First choice Preference Index (repellent side) [2]: −0.772
- Honey consumption Preference Index (repellent side) [2]: −0.727

Compound: CCOC(=O)c1ccccc1I [BR 3.81, Ethyl 2-iodobenzoate]
- numbers of honey bees on treatment side relative to water side [4]: showed a decrease in numbers of honey bees
- % honey left on repellent side [2]: 99.17%
- First choice Preference Index (repellent side) [2]: −0.9
- Honey consumption Preference Index (repellent side) [2]: −0.9

Compound: CCOC(=O)c1ccccc1I [Ethyl 2-iodobenzoate]
- TGA volatility @ 40° C. (weight loss %/min) [1]: 6.66E−03 weight loss %/min

Compound: CCOCCCNC(=O)c1ccccc1I [BR 3.30, N-(3-ethoxypropyl)(2-iodophenyl) carboxamide]
- % honey left on repellent side [2]: 80.45%
- First choice Preference Index (repellent side) [2]: −0.733
- Honey consumption Preference Index (repellent side) [2]: −0.8

Compound: CCN(CC)C(=O)c1cccc(C)c1 [DEET, N,N-diethyl-meta-toluamide, reference compound]
- TGA volatility @ 40° C. (weight loss %/min) [1]: 2.29E−03 weight loss %/min

Compound: CCOC(=O)Cc1cccc(C)c1 [Ethyl m-Tolylacetate]
- TGA volatility @ 40° C. (weight loss %/min) [1]: 2.73E−02 weight loss %/min

Compound: CCOC(=O)CC1CCc2ccccc21 (stereo not shown) [ethyl 2-(2,3-dihydro-1H-inden-1-yl) acetate]
- TGA volatility @ 40° C. (weight loss %/min) [1]: 4.61E−03 weight loss %/min

Compound: CCOCCC(=O)N1CCc2ccccc21 [BR 3.9, 1-(2,3-Dihydro-1H-indol-1-yl)-3-ethoxy-1-propanone]
- First choice Preference Index (repellent side) [2]: −0.6
- Honey consumption Preference Index (repellent side) [2]: −0.8

Compound: COCCC(=O)Oc1ccccc1 [BR 3.1, Phenyl 3-methoxy-propanoate]
- % honey left on repellent side [2]: 99.17%
- First choice Preference Index (repellent side) [2]: −0.8333
- Honey consumption Preference Index (repellent side) [2]: −0.9166

Compound: O=C(/C=C/c1cccnc1)c1ccncc1 [BR 4.4, 3-(3-Pyridinyl)-1-(4-pyridinyl)-2-propen-1-one]
- First choice Preference Index (repellent side) [2]: −0.7142
- Honey consumption Preference Index (repellent side) [2]: −0.7143

Compound: CC(C)OC(C(=O)c1ccccc1)c1ccccc1 (stereo not shown) [BR 4.5, 2-Isopropox y-1,2-diphenyl-ethanone]
- First choice Preference Index (repellent side) [2]: −0.8947
- Honey consumption Preference Index (repellent side) [2]: −0.8947
- slope, % loss per minute (TGA volatility) [3]: −1.81E-04 %/min

Compound: CCCCCC(=O)c1ccccc1 [Hexanophenone]
- TGA volatility @ 40° C. (weight loss %/min) [1]: 1.11E−02 weight loss %/min

Compound: CCCCCCCCC(C)=O [2-Decanone, reference compound]
- TGA volatility @ 40° C. (weight loss %/min) [1]: 0.1623 weight loss %/min

Source: patent publication US20250287942A1, “FORMULATIONS FOR REPELLING BEES AND OTHER INSECTS” (priority 2022, published 2025)
